The values below come from ChEMBL document CHEMBL4152360 (Bioorg Med Chem, 2018).

The source made the active and inactive calls. No cut-off for these calls is given here.

Assay [1] deals with T1, Casein kinase II subunit alpha (Homo sapiens, UniProt P68400). The assay is described as follows: Displacement of ARC-1504/ARC-1513-5O from CK2alpha (unknown origin) (1 to 335 residues) after 15 to 60 mins by luminescence assay.
Assay [2] deals with T1, Casein kinase II subunit alpha. Kind of assay: Displacement of ARC-1504/ARC-1513-5O from CK2alpha (unknown origin) (1 to 335 residues) assessed as photoluminescence lifetime using non-deoxygenated solution after 15 to 60 mins by luminescence assay.
For assay [3] the target is unchanged. Kind of assay: Displacement of ARC-1504/ARC-1513-5O from CK2alpha (unknown origin) (1 to 335 residues) assessed as maximal luminescence intensity of the complex after 15 to 60 mins by luminescence assay relative to ARC-1527.
Assay [4] has the same target. The assay is described as follows: Displacement of 5-TAMRA-labeled ARC-1530 from CK2alpha (unknown origin) (1 to 335 residues) after 15 to 60 mins by luminescence assay.
The target in assay [5] is Casein kinase II subunit alpha' (Homo sapiens) (UniProt P19784). Kind of assay: Displacement of ARC-1504/ARC-1513-5O from CK2alpha' (unknown origin) (1 to 335 residues) assessed as photoluminescence lifetime using non-deoxygenated solution after 15 to 60 mins by luminescence assay.
Assay [6] deals with T1, Casein kinase II subunit alpha. Kind of assay: Displacement of ARC-1504/ARC-1513-5O from CK2alpha (unknown origin) (1 to 335 residues) assessed as photoluminescence lifetime using deoxygenated solution after 15 to 60 mins by luminescence assay.
Assay [7] is filed under the species Mus musculus. Kind of assay: Binding affinity to CK2 in mouse NIH3T3 cell lysate at 10 nM by luminescence assay.
For assay [8], the target named is T2, Casein kinase II subunit alpha (Mus musculus) (UniProt Q60737).
T2 sequence (whole entry): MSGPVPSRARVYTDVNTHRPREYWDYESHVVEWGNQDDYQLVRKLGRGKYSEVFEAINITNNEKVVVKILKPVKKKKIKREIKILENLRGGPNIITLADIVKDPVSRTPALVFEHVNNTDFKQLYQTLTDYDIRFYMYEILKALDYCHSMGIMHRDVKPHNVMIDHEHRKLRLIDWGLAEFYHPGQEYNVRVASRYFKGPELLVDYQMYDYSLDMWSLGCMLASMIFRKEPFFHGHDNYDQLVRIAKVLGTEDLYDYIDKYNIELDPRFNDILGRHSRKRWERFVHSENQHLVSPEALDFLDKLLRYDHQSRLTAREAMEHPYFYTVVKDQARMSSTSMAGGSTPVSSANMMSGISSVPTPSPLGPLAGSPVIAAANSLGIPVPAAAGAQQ
Kind of assay: Binding affinity to RFP-tagged CK2alpha in mouse NIH/3T3 cell lysate at 10 nM by luminescence assay.

For assay [9], the target named is T2, Casein kinase II subunit alpha (Mus musculus). The assay is described as follows: Binding affinity to RFP-tagged CK2alpha in mouse NIH/3T3 cell lysate at 10 nM by luminescence assay relative to native CK2.
Assay [10] is filed under the species Mus musculus. Kind of assay: Binding affinity to CK2 in mouse NIH3T3 cell lysate at 10 nM in presence of CK2 inhibitor CX-4945 by luminescence assay.
Assay [11] deals with T2, Casein kinase II subunit alpha (Mus musculus). Kind of assay: Binding affinity to RFP-tagged CK2alpha in mouse NIH/3T3 cell lysate at 10 nM in presence of CK2 inhibitor CX-4945 by luminescence assay.

In [1], `Nc1ncc(-c2ccc(C(=O)O)cc2)s1` yielded a Kd of 48 nM.
As for `NCCCC[C@@H](NC(=O)[C@@H](CC(=O)O)NC(=O)[C@@H](CC(=O)O)NC(=O)[C@@H](CC(=O)O)NC(=O)[C@@H](CC(=O)O)NC(=O)[C@@H](CC(=O)O)NC(=O)[C@@H](CC(=O)O)NC(=O)CCCCCNC(=O)CCC(=O)Nc1ncc(-c2ccc(C(=O)O)cc2)[se]1)C(=O)O`, in assay [1], binding was put at a Kd of 0.34 nM. Besides, the Time in assay [2] was 55 microsec. In addition, the fold change (FC) in assay [3] is 46. Also, the outcome in assay [4] was Active.
`CN(C)c1ccc2c(-c3ccc(C(=O)NCCCC[C@@H](NC(=O)[C@@H](CC(=O)O)NC(=O)[C@@H](CC(=O)O)NC(=O)[C@@H](CC(=O)O)NC(=O)[C@@H](CC(=O)O)NC(=O)[C@@H](CC(=O)O)NC(=O)[C@@H](CC(=O)O)NC(=O)CCCCCNC(=O)CCC(=O)Nc4ncc(-c5ccc(C(=O)O)cc5)[se]4)C(=O)O)cc3C(=O)[O-])c3ccc(=[N+](C)C)cc-3oc2c1`: in [1], the Kd is 0.85 nM. In addition, the values for the Time in assay [2], in [5] and in [6] were 39 microsec, 39 microsec and 58 microsec, respectively. Besides, the fold change (FC) in assay [3] is 5300; in assay [9] it was 10. Besides, the result in [7] and in assay [8] was Active. In addition, the result in [10] and in [11] was inactive.
In turn, `CN(C)c1ccc2c(-c3ccc(C(=O)NCCCC[C@@H](NC(=O)[C@@H](CC(=O)O)NC(=O)[C@@H](CC(=O)O)NC(=O)[C@@H](CC(=O)O)NC(=O)[C@@H](CC(=O)O)NC(=O)[C@@H](CC(=O)O)NC(=O)[C@@H](CC(=O)O)NC(=O)CCCCCNC(=O)CCC(=O)Nc4ncc(-c5ccc(C(=O)O)cc5)s4)C(=O)O)cc3C(=O)[O-])c3ccc(=[N+](C)C)cc-3oc2c1` yielded a dissociation constant (Kd) in [1] of 0.4 nM. The Time was found to be 62 microsec in [2], 62 microsec in assay [5] and 165 microsec in [6]. For the same molecule, the fold change (FC) in assay [3] is 76.
